Assay results: PubChem BioAssay AID1963448 (Molecular Pharmacology Branch, DTP, NCI, 2024)
pIC50: −log10 of the molar value. Values belong to the compound of their own block, whether it stands above or below them.

System: 616215-338-R-J1-PDC complex spheroid growth, % test/control
Assay: Anticancer human tumor 616215-338-R-J1-PDC patient-derived colon adenocarcinoma cell line growth inhibition [Asc]
Conditions: for pIC50: curve of first compound; for viability, T/C: stronger effect = lower value
Description: Multicellular complex tumor spheroid response to apoptosis pathway targeting inhibitors Alrizomadlin, Pelcitoclax, and Dasminapant in combination with a variety of drugs and investigational agents in selected tumor cell lines
The MDM2 inhibitor alrizomadlin, the Bcl-2/Bcl-xL inhibitor pelcitoclax, and the IAPs inhibitor dasminapant were evaluated both individually and in combination with standard of care and investigational anticancer small molecules within a complex spheroid model of solid tumors. . Complex spheroids include a stromal component modeled by human endothelial cells (HUVEC) and fibroblasts modeled by human mesenchymal stem cells (MSCs). The concentration ranges selected for each drug and investigational agent were based upon clinically achievable concentrations if the clinical Cmax of the agent was known.
Compounds. The drugs and investigational agents: alrizomadlin (APG-115; NSC831270), pelcitoclax (APG-1252; NSC835773), dasminapant (APG-1387;NSC834197), TAK-243 (NSC785004), copanlisib (NSC809693), olaparib (NSC753686), talazoparib (NSC767125), cobimetinib (NSC 768068), eltanexor (KPT-8602, NSC 794443), abemaciclib (NSC 768073), sotorasib (NSC818433), adagrasib (NSC 831453), MRTX-1133 (NSC 836407), Iadademestat (ORY1001, NSC 806812), and RMC-4630 (NSC839698), were obtained from the NCI Developmental Therapeutics Program Chemical Repository. The FDA-approved anticancer drug set is available from the Developmental Therapeutics Program at https://dtp.cancer.gov/organization/dscb/obtaining/available plates.htm. […] The stock solutions were prepared in dimethyl sulfoxide (DMSO, Sigma-Aldrich, St. Louis, MO, cat. D2650) at 800-fold the tested concentration and stored at -70 degrees C prior to their use. All drugs and investigational agents were tested over a range starting from a high concentration at or near the clinical Cmax and decreasing in half-log increments. If the clinical Cmax for an agent had not been determined, the highest concentration tested was 10 microM.
The patient-derived cancer (PDC) cell lines include five colon adenocarcinomas: 186277-243-T-J2-PDC, 616215-338-R-J1-PDC, 439559-082-T-J2-PDC, 463943-066-T-J2-PDC, and 519858-162-T-J1-PDC; three pancreatic carcinomas: 323965-272-R-J2-PDC, 521955-158-R6-J3-PDC, and 521955-158-R2-J5-PDC; two uterine sarcomas: 327498-152-R-J2-PDC and 993429-296-R-J1-PDC; two rhabdomyosarcomas: 755483-174-R-J1-PDC and 772245-204-R-J1-PDC; two soft tissue sarcomas: 126254-015-R-J1-PDC and 494315-158-R-J1-PDC; two malignant fibrous histiocytomas: 317291-083-R-J1-PDC and 596521-263-R-J1-PDC; two breast carcinomas: 171881-019-R-J1-PDC and 885512-296-R-J2-PDC; and one ovarian carcinoma: 6556581-035-R-J-PDC were obtained from the NCI PDMR, (https://pdmr.cancer.gov). The established cell lines HSSY-2 synovial sarcoma (RRID:CVCL 8719), SYO-1 synovial sarcoma (RRID:CVCL_7146), MPNST malignant peripheral neural sheath tumor were obtained from the Sloan Kettering Institute. The following established cell lines were purchased from the American Type Culture Collection (ATCC, Manassas, VA), Sor the received from the NCI repository:, PANC-1 pancreatic carcinoma (CRL-1469, RRID:CVCL_0480), OVCAR-5 ovarian carcinoma (RRID:CVCL_1628), OVCAR-8 ovarian carcinoma (RRID:CVCL_1629), , MCF-7 breast carcinoma (CRL-12584, RRID:CVCL_0031), MDA-MB-231 breast carcinoma (CRL-12532, RRID:CVCL_0062), NCI-H1876 small cell lung carcinoma (CRL-5902, RRID:CVCL_1503), NCI-H510A small cell lung carcinoma (HTB-184, RRID:CVCL_1565), NCI-H1417 (CRL-5869, RRID:CVCL_1469), and NCI-H196 small cell lung carcinoma (CRL-5823, RRID:CVCL_1509). Dr. Peter Houghton (Greehey Children's Cancer Research Institute, University of Texas Health Science Center, San Antonio, TX) provided Rh-18 rhabdomyosarcoma (RRID:CVCL_1659). Pooled donor human umbilical vein endothelial cells (HUVEC, Lonza, cat. CC-2519) and human mesenchymal stem cells (hMSC, Lonza, cat. PT-2501) were purchased from Lonza (Walkersville, MD).
Cell Culture. […]

[1] = second compound 0.1 µM, first compound 0.00949 µM
[2] = second compound 0.1 µM, first compound 0.03 µM
[3] = second compound 0.1 µM, first compound 0.0949 µM
[4] = second compound 0.1 µM, first compound 0.3 µM
[5] = second compound 0.1 µM, first compound 0.949 µM
[6] = second compound 0.1 µM, first compound 3 µM
[7] = second compound 0.316 µM, first compound 0.00949 µM
[8] = second compound 0.316 µM, first compound 0.03 µM
[9] = second compound 0.316 µM, first compound 0.0949 µM
[10] = second compound 0.316 µM, first compound 0.3 µM
[11] = second compound 0.316 µM, first compound 0.949 µM
[12] = second compound 0.316 µM, first compound 3 µM
[13] = second compound 1 µM, first compound 0.00949 µM
[14] = second compound 1 µM, first compound 0.03 µM
[15] = second compound 1 µM, first compound 0.0949 µM
[16] = second compound 1 µM, first compound 0.3 µM
[17] = second compound 1 µM, first compound 0.949 µM
[18] = second compound 1 µM, first compound 3 µM
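Note: spheroids exposed to agents for seven days before readout.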
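Throughout, for viability, T/C: 100% = DMSO vehicle control viability.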

pIC50 (second compound 0.1 µM): < 5.52 | pIC50 (second compound 0.316 µM): < 5.52 | pIC50 (second compound 1 µM): < 5.52 | pIC50 (second compound 3.16 µM): > 8.02 | pIC50 (second compound 10 µM): > 8.02
SMILES: Cc1nc(N2CCC3(CC2)COC(C)C3N)c(CO)nc1Sc1ccnc(N)c1Cl (configuration not stated) + Cc1c(S(C)(=O)=O)c(-c2cc(F)cc(N3CCN(c4ccc(NS(=O)(=O)c5ccc(NC(CCN6CCC(C(=O)OCCCP(=O)(O)O)CC6)CSc6ccccc6)c(S(=O)(=O)C(F)(F)F)c5)cc4)CC3)c2)c(-c2ccc(Cl)cc2)n1C(C)C
viability, T/C [1]: 97.8% | viability, T/C [2]: 102% | viability, T/C [3]: 100% | viability, T/C [4]: 95.9% | viability, T/C [5]: 84.5% | viability, T/C [6]: 76.7% | viability, T/C [7]: 96.7% | viability, T/C [8]: 92.8% | viability, T/C [9]: 94.5% | viability, T/C [10]: 94.9% | viability, T/C [11]: 76.6% | viability, T/C [12]: 71.3% | viability, T/C [13]: 68% | viability, T/C [14]: 67.8% | viability, T/C [15]: 68.9% | viability, T/C [16]: 66.7% | viability, T/C [17]: 61.7% | viability, T/C [18]: 55.6% | viability, T/C (second compound 3.16 µM, first compound 0.00949 µM): 38.2% | viability, T/C (second compound 3.16 µM, first compound 0.03 µM): 38.4% | viability, T/C (second compound 3.16 µM, first compound 0.0949 µM): 34.2% | viability, T/C (second compound 3.16 µM, first compound 0.3 µM): 36.8% | viability, T/C (second compound 3.16 µM, first compound 0.949 µM): 25.9% | viability, T/C (second compound 3.16 µM, first compound 3 µM): 21.9% | viability, T/C (second compound 10 µM, first compound 0.00949 µM): 29.4% | viability, T/C (second compound 10 µM, first compound 0.03 µM): 25.6% | viability, T/C (second compound 10 µM, first compound 0.0949 µM): 30.2% | viability, T/C (second compound 10 µM, first compound 0.3 µM): 21.1% | viability, T/C (second compound 10 µM, first compound 0.949 µM): 9.17% | viability, T/C (second compound 10 µM, first compound 3 µM): 6.63%

pIC50 (second compound 0.00316 µM): 6.01 | pIC50 (second compound 0.01 µM): 6.27 | pIC50 (second compound 0.0316 µM): 5.97 | pIC50 (second compound 0.1 µM): 6.11 | pIC50 (second compound 0.316 µM): 6.28 | pIC50 (second compound 1 µM): 5.75
SMILES: Cc1nc(N2CCC3(CC2)COC(C)C3N)c(CO)nc1Sc1ccnc(N)c1Cl (configuration not stated) + CNC(C)C(=O)NC1CN(S(=O)(=O)c2cccc(S(=O)(=O)N3CCC4CCC(C(=O)NC(c5ccccc5)c5ccccc5)N4C(=O)C(NC(=O)C(C)NC)C3)c2)CCC2CCC(C(=O)NC(c3ccccc3)c3ccccc3)N2C1=O
viability, T/C (second compound 0.00316 µM, first compound 0.00949 µM): 96.8% | viability, T/C (second compound 0.00316 µM, first compound 0.03 µM): 104% | viability, T/C (second compound 0.00316 µM, first compound 0.0949 µM): 89.7% | viability, T/C (second compound 0.00316 µM, first compound 0.3 µM): 99.3% | viability, T/C (second compound 0.00316 µM, first compound 0.949 µM): 50.8% | viability, T/C (second compound 0.00316 µM, first compound 3 µM): 8.66% | viability, T/C (second compound 0.01 µM, first compound 0.00949 µM): 87.2% | viability, T/C (second compound 0.01 µM, first compound 0.03 µM): 94.1% | viability, T/C (second compound 0.01 µM, first compound 0.0949 µM): 99.7% | viability, T/C (second compound 0.01 µM, first compound 0.3 µM): 85.3% | viability, T/C (second compound 0.01 µM, first compound 0.949 µM): 14.7% | viability, T/C (second compound 0.01 µM, first compound 3 µM): 7.72% | viability, T/C (second compound 0.0316 µM, first compound 0.00949 µM): 99.4% | viability, T/C (second compound 0.0316 µM, first compound 0.03 µM): 68.4% | viability, T/C (second compound 0.0316 µM, first compound 0.0949 µM): 104% | viability, T/C (second compound 0.0316 µM, first compound 0.3 µM): 98.4% | viability, T/C (second compound 0.0316 µM, first compound 0.949 µM): 54.9% | viability, T/C (second compound 0.0316 µM, first compound 3 µM): 11.4% | viability, T/C [1]: 103% | viability, T/C [2]: 85.1% | viability, T/C [3]: 94% | viability, T/C [4]: 115% | viability, T/C [5]: 40.3% | viability, T/C [6]: 9.21% | viability, T/C [7]: 92.2% | viability, T/C [8]: 78.3% | viability, T/C [9]: 98.2% | viability, T/C [10]: 68.3% | viability, T/C [11]: 29.9% | viability, T/C [12]: 11.6% | viability, T/C [13]: 83.1% | viability, T/C [14]: 88.3% | viability, T/C [15]: 103% | viability, T/C [16]: 92.5% | viability, T/C [17]: 101% | viability, T/C [18]: 12.8%
